Test [1] deals with Lysine-specific histone demethylase 1A (Homo sapiens) (UniProt O60341). In words: Activation of human recombinant LSD1 at 10 uM after 30 mins to 4 hrs by fluorescence assay relative to control.
The target in test [2] is T1, Amine oxidase [flavin-containing] A (Homo sapiens, UniProt P21397).
T1 sequence (P21397 whole entry): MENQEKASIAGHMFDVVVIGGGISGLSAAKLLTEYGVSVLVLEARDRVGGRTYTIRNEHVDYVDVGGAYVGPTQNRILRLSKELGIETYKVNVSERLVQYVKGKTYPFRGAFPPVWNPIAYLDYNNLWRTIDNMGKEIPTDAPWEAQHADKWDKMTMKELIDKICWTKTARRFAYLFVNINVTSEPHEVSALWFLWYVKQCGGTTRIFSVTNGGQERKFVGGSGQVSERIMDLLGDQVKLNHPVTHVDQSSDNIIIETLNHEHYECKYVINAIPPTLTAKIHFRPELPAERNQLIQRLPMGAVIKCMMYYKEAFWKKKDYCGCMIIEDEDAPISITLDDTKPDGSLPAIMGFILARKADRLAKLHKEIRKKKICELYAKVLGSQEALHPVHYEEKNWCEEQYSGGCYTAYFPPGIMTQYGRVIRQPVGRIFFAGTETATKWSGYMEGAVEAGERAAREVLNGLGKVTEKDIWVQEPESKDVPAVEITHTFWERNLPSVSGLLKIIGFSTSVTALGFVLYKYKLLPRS
Description: Inhibition of MAO-A (unknown origin) by MAo-Glo kit analysis

In test [3] the target is T2, Amine oxidase [flavin-containing] B (Homo sapiens, UniProt P27338).
T2 sequence (P27338 whole entry): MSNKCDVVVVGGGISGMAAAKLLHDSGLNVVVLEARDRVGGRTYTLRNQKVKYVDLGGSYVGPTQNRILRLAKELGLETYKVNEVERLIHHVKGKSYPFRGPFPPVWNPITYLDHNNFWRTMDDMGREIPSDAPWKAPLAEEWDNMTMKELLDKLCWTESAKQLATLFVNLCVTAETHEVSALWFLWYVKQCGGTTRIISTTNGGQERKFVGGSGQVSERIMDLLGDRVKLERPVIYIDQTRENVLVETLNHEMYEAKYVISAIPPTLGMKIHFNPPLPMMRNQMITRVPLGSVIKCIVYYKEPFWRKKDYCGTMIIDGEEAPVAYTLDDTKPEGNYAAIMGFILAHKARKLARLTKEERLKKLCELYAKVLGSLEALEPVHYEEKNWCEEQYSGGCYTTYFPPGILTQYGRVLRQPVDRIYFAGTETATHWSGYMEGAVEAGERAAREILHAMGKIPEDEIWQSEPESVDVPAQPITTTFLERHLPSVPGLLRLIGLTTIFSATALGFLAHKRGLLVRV
Description: Inhibition of MAO-B (unknown origin) by MAo-Glo kit analysis

For the compound `O=C(NCCCNCCCCCCNCCCNC(=O)NCc1ccccc1)NCc1ccccc1`, the Activity in test [1] was 110%.

Take `O=C(NCCCNCCCCCNCCCNC(=O)Nc1ccccc1)Nc1ccccc1`: the Activity in test [1] was determined as 163%.

Turning to `CCCNC(=O)NCCCNCCCCCCNCCCNC(=O)NCCC`, in test [1], the Activity is 119%.

For the compound `CCNC(=O)NCCCNCCCCCCNCCCNC(=O)NCC`, in test [1], the Activity came to 119%.

Turning to `N=C(NCCCNCCCCCCCNCCCNC(=N)NC(=N)NCCC(c1ccccc1)c1ccccc1)NC(=N)NCCC(c1ccccc1)c1ccccc1`, the values for the IC50 in test [2] and in test [3] were 37 µM and 10 µM, respectively.

These data come from ChEMBL document CHEMBL3400002, “Structure-activity study for (bis)ureidopropyl- and (bis)thioureidopropyldiamine LSD1 inhibitors with 3-5-3 and 3-6-3 carbon backbone architectures” (Bioorg Med Chem, 2015).
